Test results: US20250101038A1, “COMPOUNDS” (priority 2021, published 2025)

Experiments:
5-HT2A receptor = target: T1, 5-HT2A receptor (Homo sapiens, UniProt P28223); experiment: FLIPR Ca2+ flux functional assay, 5-HT2A; type: cell-based; conditions: agonist activity, Ca2+ flux, HEK293 cells; for EC50: read-out: 5-HT2A EC50
T1 construct: host or cells: HEK293
Experimental: Activity at 5-HT2A, 5-HT2B and 5-HT2C receptors was determined using a FLIPR Ca^2+ flux assay at WuXi AppTec Co. Ltd. (Hong Kong) Discovery Biology Unit according to their standard protocols. Briefly, stably transfected cells expressing the receptor of interest (HEK293 for 5-HT2A and 5-HT2C; CHO-K1 for 5-HT2B) were grown and plated in a 384 well plate and incubated at 37° C. and 5% CO2 overnight. A 250 mM stock solution of probenecid in FLIPR calcium assay buffer (10 mL) was freshly prepared and combined with a fluorescent dye (Fluo-4 Direct) to give a final assay concentration of 2.5 mM. Reference compounds were 4-fold serially diluted and the screening compounds were 3-fold serially diluted in 100% DMSO for 10 points using Agilent Bravo, and 750 nL was added to a 384 well compound plate using Echo along with 30 μL assay buffer. The fluorescent dye was then added to the assay plate along with assay buffer to a final volume of […]. The cell plate was incubated for 50 min at 37° C. and 5% CO2 and placed into the FLIPR Tetra along with the compound plate. 10 μL of references and compounds were then transferred from the compound plate into the cell plate and the fluorescent signal was read.

5-HT2B receptor = target: T2, 5-HT2B receptor (Homo sapiens, UniProt P41595); experiment: cell-based; conditions: agonist activity, Ca2+ flux, CHO-K1 cells; for EC50: read-out: 5-HT2B EC50
T2 construct: host or cells: CHO-K1

5-HT2C receptor = target: T3, 5-HT2C receptor (Homo sapiens, UniProt P28335); experiment: cell-based; conditions: agonist activity, Ca2+ flux, HEK293 cells; for EC50: read-out: 5-HT2C EC50
T3 construct: host or cells: HEK293
T3 sequence (P28335 33-458): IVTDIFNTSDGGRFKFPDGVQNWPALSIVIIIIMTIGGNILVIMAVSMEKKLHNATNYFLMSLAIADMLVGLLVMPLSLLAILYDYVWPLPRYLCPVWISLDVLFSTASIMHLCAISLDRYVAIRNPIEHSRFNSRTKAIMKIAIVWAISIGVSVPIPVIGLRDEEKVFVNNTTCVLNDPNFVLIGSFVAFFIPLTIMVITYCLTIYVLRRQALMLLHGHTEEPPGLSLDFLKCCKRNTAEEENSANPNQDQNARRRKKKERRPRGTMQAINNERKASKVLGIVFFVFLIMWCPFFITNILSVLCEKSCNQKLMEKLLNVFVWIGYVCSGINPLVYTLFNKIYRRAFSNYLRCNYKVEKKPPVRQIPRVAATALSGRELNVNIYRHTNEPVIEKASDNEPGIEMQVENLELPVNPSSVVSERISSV

T1 sequence (P28223 whole entry): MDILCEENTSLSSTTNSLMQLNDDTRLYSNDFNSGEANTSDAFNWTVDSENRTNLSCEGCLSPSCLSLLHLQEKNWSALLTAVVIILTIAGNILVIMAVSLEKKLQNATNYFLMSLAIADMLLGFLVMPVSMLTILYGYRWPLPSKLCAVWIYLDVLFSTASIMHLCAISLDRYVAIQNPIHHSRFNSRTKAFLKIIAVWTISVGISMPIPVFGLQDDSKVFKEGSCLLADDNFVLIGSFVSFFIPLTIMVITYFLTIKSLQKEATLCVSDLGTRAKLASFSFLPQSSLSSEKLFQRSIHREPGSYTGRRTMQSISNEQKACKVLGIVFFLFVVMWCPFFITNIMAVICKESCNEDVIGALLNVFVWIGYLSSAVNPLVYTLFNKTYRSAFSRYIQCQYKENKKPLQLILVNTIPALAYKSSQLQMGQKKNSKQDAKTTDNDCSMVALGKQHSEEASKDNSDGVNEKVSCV
T2 sequence (P41595 whole entry): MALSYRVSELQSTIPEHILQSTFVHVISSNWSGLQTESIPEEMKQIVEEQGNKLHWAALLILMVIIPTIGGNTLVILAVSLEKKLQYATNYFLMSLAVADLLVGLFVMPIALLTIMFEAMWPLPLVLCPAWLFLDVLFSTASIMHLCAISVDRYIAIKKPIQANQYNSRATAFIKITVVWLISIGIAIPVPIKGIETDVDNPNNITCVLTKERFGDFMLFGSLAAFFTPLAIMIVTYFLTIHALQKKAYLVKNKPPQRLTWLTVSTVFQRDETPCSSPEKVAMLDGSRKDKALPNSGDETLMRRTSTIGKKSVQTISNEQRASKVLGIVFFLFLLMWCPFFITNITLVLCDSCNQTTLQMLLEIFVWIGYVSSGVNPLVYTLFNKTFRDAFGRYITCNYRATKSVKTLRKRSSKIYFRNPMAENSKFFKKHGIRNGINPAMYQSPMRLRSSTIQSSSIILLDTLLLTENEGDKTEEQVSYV

Structure (SMILES) | Emax (5-HT2A receptor) [%] | Emax (5-HT2B receptor) [%] | Emax (5-HT2C receptor) [%] | EC50 (5-HT2A receptor) [nM] | EC50 (5-HT2B receptor) [nM] | EC50 (5-HT2C receptor) [nM]
CCN(C)CCc1c[nH]c2c(C)ccc(O)c12 [Example P-85, 3-(2-(ethyl(methyl)amino)ethyl)-7-methyl-1H-indol-4-ol] | 52 | 0.13 | 26.9 |  |  | 
CCCN(C)CCc1c[nH]c2c(C)ccc(O)c12 [Example P-86, 7-methyl-3-(2-(methyl(propyl)amino)ethyl)-1H-indol-4-ol] | 66.9 | -0.14 | 10 | 110 | ≥ 10000 | > 10000
Cc1ccc(O)c2c(CCN(C)C(C)C)c[nH]c12 [Example P-87, 3-(2-(isopropyl(methyl)amino)ethyl)-7-methyl-1H-indol-4-ol] | 62.4 | -0.38 | 4.33 | 113 | ≥ 10000 | > 10000
CCN(CC)CCc1c[nH]c2c(C)ccc(O)c12 [Example P-88, 3-(2-(diethylamino)ethyl)-7-methyl-1H-indol-4-ol] | 61.1 | -0.07 | 25.4 | 189 | ≥ 10000 | 1300
CCCN(CCC)CCc1c[nH]c2c(C)ccc(O)c12 [Example P-89, 3-(2-(dipropylamino)ethyl)-7-methyl-1H-indol-4-ol] | 118 | 6.63 | 54.7 | 48.6 | ≥ 10000 | 889
Cc1ccc(O)c2c(CCN(C(C)C)C(C)C)c[nH]c12 [Example P-90, 3-(2-(diisopropylamino)ethyl)-7-methyl-1H-indol-4-ol] | 95.1 | 15.7 | 50.2 | 817 | ≥ 10000 | 9970
COc1c(F)ccc2[nH]cc(CCN(C)C)c12 [Example P-91, 2-(5-fluoro-4-methoxy-1H-indol-3-yl)-N,N-dimethylethan-1-amine] | 74.9 | 4.57 | 109 | 2.33 | > 10000 | 1.24
CCN(C)CCc1c[nH]c2ccc(F)c(OC)c12 [Example P-92, N-ethyl-2-(5-fluoro-4-methoxy-1H-indol-3-yl)-N-methylethan-1-amine] | 78 | 25.1 | 75.3 | 7.33 | > 10000 | 17.9
COc1c(F)ccc2[nH]cc(CCN(C)C(C)C)c12 [Example P-93, N-(2-(5-fluoro-4-methoxy-1H-indol-3-yl)ethyl)-N-methylpropan-2-amine] | 95.3 | 51.5 | 85.1 | 7.25 | 24.8 | 45.2
CCN(CC)CCc1c[nH]c2ccc(F)c(OC)c12 [Example P-94, N,N-diethyl-2-(5-fluoro-4-methoxy-1H-indol-3-yl)ethan-1-amine] | 98.1 | 47.4 | 58 | 11.2 | 94.2 | 131
COc1c(F)ccc2[nH]cc(CCN(C(C)C)C(C)C)c12 [Example P-95, N-(2-(5-fluoro-4-methoxy-1H-indol-3-yl)ethyl)-N-isopropylpropan-2-amine] | 93.2 | 96.3 | 83 | 20 | 21.6 | 260
CCN(C)CCc1c[nH]c2cc(F)cc(OC)c12 [Example P-96, N-ethyl-2-(6-fluoro-4-methoxy-1H-indol-3-yl)-N-methylethan-1-amine] | 73.6 | 19.6 | 79.6 | 8 | > 10000 | 60.2
COc1cc(F)cc2[nH]cc(CCN(C)C(C)C)c12 [Example P-97, N-(2-(6-fluoro-4-methoxy-1H-indol-3-yl)ethyl)-N-methylpropan-2-amine] | 65.4 | 14.2 | 59.8 | 6.76 | > 10000 | 336
